# Reference: publication PMC7758046, “Novel piperazine–chalcone hybrids and related pyrazoline analogues targeting VEGFR-2 kinase; design, synthesis, molecular docking studies, and anticancer evaluation” (Journal of Enzyme Inhibition and Medicinal Chemistry, 2020)
# Tests used:
# [1] = tested on: HT29 (Colon cancer); assay: NCI-60 single-dose anticancer screen; format: cell-based, human; details: 10 µM single dose
# Description: (§1) Six compounds were selected by the NCI, according to NCI’s DTP selection guidelines, for evaluation of their anticancer activity at a single-dose of 10 µM against 60 human tumours cell lines.
# (§2) In vitro cytotoxicity was performed in NCI according to reported method.
# [2] = tested on: EKVX (Non-small cell lung cancer); assay: NCI-60 single-dose anticancer screen; format: cell-based, human; details: 10 µM single dose
# Description: as §1, §2
# [3] = tested on: RPMI-8226 (Leukaemia); assay: NCI-60 single-dose anticancer screen; format: cell-based, human; details: 10 µM single dose
# Description: as §1, §2
# [4] = tested on: HCT-116 (Colon cancer); assay: NCI-60 single-dose anticancer screen; format: cell-based, human
# Description: as §1, §2
# [5] = tested on: MCF7 (Breast cancer); assay: NCI-60 single-dose anticancer screen; format: cell-based, human; details: 10 µM single dose
# Description: as §1, §2
# [6] = tested on: SK-MEL-28 (Melanoma); assay: NCI-60 single-dose anticancer screen; format: cell-based, human; details: 10 µM single dose
# Description: as §1, §2
# [7] = tested on: MDA-MB-231/ATCC (Breast cancer); assay: NCI-60 single-dose anticancer screen; format: cell-based, human; details: 10 µM single dose
# Description: as §1, §2
# [8] = tested on: MOLT-4 (Leukaemia); assay: NCI-60 single-dose anticancer screen; format: cell-based, human; details: 10 µM single dose
# Description: as §1, §2
# [9] = tested on: UACC-257 (Melanoma); assay: NCI-60 single-dose anticancer screen; format: cell-based, human; details: 10 µM single dose
# Description: as §1, §2
# [10] = tested on: HL-60(TB) (Leukaemia); assay: NCI-60 single-dose anticancer screen; format: cell-based, human; details: 10 µM single dose
# Description: as §1, §2
# [11] = tested on: U251 (CNS cancer); assay: NCI-60 single-dose anticancer screen; format: cell-based, human; details: 10 µM single dose
# Description: as §1, §2
# [12] = tested on: PC-3 (Prostate cancer); assay: NCI-60 single-dose anticancer screen; format: cell-based, human; details: 10 µM single dose
# Description: as §1, §2
# [13] = tested on: OVCAR-5 (Ovarian cancer); assay: NCI-60 single-dose anticancer screen; format: cell-based, human; details: 10 µM single dose
# Description: as §1, §2
# [14] = tested on: COLO 205 (Colon cancer); assay: NCI-60 single-dose anticancer screen; format: cell-based, human; details: 10 µM single dose
# Description: as §1, §2
# [15] = tested on: HOP-92 (Non-small cell lung cancer); assay: NCI-60 single-dose anticancer screen; format: cell-based, human; details: 10 µM single dose
# Description: as §1, §2
# [16] = tested on: UACC-62 (Melanoma); assay: NCI-60 single-dose anticancer screen; format: cell-based, human; details: 10 µM single dose
# Description: as §1, §2
# [17] = tested on: CAKI-1 (Renal cancer); assay: NCI-60 single-dose anticancer screen; format: cell-based, human; details: 10 µM single dose
# Description: as §1, §2
# [18] = tested on: SF-268 (CNS cancer); assay: NCI-60 single-dose anticancer screen; format: cell-based, human; details: 10 µM single dose
# Description: as §1, §2
# [19] = tested on: HS 578T (Breast cancer); assay: NCI-60 single-dose anticancer screen; format: cell-based, human; details: 10 µM single dose
# Description: as §1, §2
# [20] = tested on: HCT-15 (Colon cancer); assay: NCI-60 single-dose anticancer screen; format: cell-based, human; details: 10 µM single dose
# Description: as §1, §2
# [21] = tested on: M14 (Melanoma); assay: NCI-60 single-dose anticancer screen; format: cell-based, human; details: 10 µM single dose
# Description: as §1, §2
# [22] = tested on: OVCAR-4 (Ovarian cancer); assay: NCI-60 single-dose anticancer screen; format: cell-based, human; details: 10 µM single dose
# Description: as §1, §2
# [23] = tested on: MALME-3M (Melanoma); assay: NCI-60 single-dose anticancer screen; format: cell-based, human; details: 10 µM single dose
# Description: as §1, §2
# [24] = tested on: SNB-19 (CNS cancer); assay: NCI-60 single-dose anticancer screen; format: cell-based, human; details: 10 µM single dose
# Description: as §1, §2
# [25] = tested on: UO-31 (Renal cancer); assay: NCI-60 single-dose anticancer screen; format: cell-based, human; details: 10 µM single dose
# Description: as §1, §2
# [26] = tested on: SN12C (Renal cancer); assay: NCI-60 single-dose anticancer screen; format: cell-based, human; details: 10 µM single dose
# Description: as §1, §2
# [27] = tested on: IGROV1 (Ovarian cancer); assay: NCI-60 single-dose anticancer screen; format: cell-based, human; details: 10 µM single dose
# Description: as §1, §2
# [28] = tested on: CCRF-CEM (Leukaemia); assay: NCI-60 single-dose anticancer screen; format: cell-based, human; details: 10 µM single dose
# Description: as §1, §2
# [29] = tested on: NCI-H226 (Non-small cell lung cancer); assay: NCI-60 single-dose anticancer screen; format: cell-based, human; details: 10 µM single dose
# Description: as §1, §2
# [30] = tested on: SNB-75 (CNS cancer); assay: NCI-60 single-dose anticancer screen; format: cell-based, human; details: 10 µM single dose
# Description: as §1, §2
# [31] = tested on: SK-OV-3 (Ovarian cancer); assay: NCI-60 single-dose anticancer screen; format: cell-based, human; details: 10 µM single dose
# Description: as §1, §2
# [32] = tested on: OVCAR-8 (Ovarian cancer); assay: NCI-60 single-dose anticancer screen; format: cell-based, human; details: 10 µM single dose
# Description: as §1, §2
# [33] = tested on: ACHN (Renal cancer); assay: NCI-60 single-dose anticancer screen; format: cell-based, human; details: 10 µM single dose
# Description: as §1, §2
# [34] = tested on: RXF 393 (Renal cancer); assay: NCI-60 single-dose anticancer screen; format: cell-based, human; details: 10 µM single dose
# Description: as §1, §2
# [35] = tested on: DU-145 (Prostate cancer); assay: NCI-60 single-dose anticancer screen; format: cell-based, human; details: 10 µM single dose
# Description: as §1, §2
# [36] = tested on: NCI-H322M (Non-small cell lung cancer); assay: NCI-60 single-dose anticancer screen; format: cell-based, human; details: 10 µM single dose
# Description: as §1, §2
# [37] = tested on: NCI-H460 (Non-small cell lung cancer); assay: NCI-60 single-dose anticancer screen; format: cell-based, human; details: 10 µM single dose
# Description: as §1, §2
# [38] = tested on: HCC-2998 (Colon cancer); assay: NCI-60 single-dose anticancer screen; format: cell-based, human; details: 10 µM single dose
# Description: as §1, §2
# [39] = tested on: OVCAR-3 (Ovarian cancer); assay: NCI-60 single-dose anticancer screen; format: cell-based, human; details: 10 µM single dose
# Description: as §1, §2
# [40] = tested on: T-47D (Breast cancer); assay: NCI-60 single-dose anticancer screen; format: cell-based, human; details: 10 µM single dose
# Description: as §1, §2
# [41] = molecular target: T1, human VEGFR-2 (Homo sapiens, UniProt P35968); assay: In vitro VEGFR-2 inhibitory assay (colorimetric human VEGFR-2 ELISA, HTScan VEGF Receptor 2 Kinase Assay Kit); format: biochemical; details: VEGFR-2 inhibition
# T1 construct: It includes active VEGFR-2 kinase; purchased HTScan VEGF Receptor 2 Kinase Assay Kit
# T1 sequence (P35968 20-1356): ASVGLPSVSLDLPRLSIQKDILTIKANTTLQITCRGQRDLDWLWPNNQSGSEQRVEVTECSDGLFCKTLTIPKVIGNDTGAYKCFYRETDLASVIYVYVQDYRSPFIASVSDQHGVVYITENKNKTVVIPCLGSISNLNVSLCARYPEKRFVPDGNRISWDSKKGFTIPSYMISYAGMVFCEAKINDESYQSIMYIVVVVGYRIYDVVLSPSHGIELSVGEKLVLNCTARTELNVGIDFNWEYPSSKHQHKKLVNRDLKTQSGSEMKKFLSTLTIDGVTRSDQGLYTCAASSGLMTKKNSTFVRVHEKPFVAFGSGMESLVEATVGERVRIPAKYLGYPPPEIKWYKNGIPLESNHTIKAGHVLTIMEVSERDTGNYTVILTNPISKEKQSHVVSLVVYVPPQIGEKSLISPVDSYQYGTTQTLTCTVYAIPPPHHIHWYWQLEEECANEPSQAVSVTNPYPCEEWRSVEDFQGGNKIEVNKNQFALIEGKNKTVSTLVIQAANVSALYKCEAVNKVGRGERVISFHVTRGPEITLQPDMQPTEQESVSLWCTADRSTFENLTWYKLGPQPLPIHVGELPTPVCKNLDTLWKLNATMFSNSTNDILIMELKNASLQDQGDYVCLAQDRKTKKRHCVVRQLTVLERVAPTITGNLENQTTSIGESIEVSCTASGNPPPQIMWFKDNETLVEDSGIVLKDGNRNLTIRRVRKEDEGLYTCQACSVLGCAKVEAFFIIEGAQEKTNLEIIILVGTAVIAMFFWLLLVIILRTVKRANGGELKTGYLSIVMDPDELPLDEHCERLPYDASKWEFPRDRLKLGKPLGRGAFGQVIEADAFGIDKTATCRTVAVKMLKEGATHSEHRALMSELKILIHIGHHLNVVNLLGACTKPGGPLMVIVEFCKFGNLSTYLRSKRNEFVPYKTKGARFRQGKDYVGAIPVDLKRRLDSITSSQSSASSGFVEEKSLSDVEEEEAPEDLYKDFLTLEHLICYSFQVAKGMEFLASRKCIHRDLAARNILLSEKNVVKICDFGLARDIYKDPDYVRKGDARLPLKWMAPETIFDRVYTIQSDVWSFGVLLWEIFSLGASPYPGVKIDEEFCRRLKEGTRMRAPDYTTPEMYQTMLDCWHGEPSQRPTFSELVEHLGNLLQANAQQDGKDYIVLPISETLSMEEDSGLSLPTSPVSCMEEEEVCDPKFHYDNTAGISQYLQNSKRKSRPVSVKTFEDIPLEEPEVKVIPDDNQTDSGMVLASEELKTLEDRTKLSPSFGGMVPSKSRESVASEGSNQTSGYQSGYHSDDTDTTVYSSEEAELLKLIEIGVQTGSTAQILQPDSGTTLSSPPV
# Description: VEGFR is considered as an important target for the development of potential anti-cancer candidates.
# On a 96-well plate, a particular VEGFR-2 antibody was seeded and 100 µL of the normal solution or compound tested was applied, incubated at room temperature for 2.5 h and washed.
# Then, 100 µL of the prepared biotin antibody was added, incubated for an additional 1 h at room temperature and washed. Following, 100 µL of streptavidin solution was added at room temperature, incubated for 45 min and then, 100 µL of TMB substrate solution was applied and incubated at room temperature for 30 min. Finally, 50 µL stop solution was added and the absorption was measured at 450 nm instantly. The standard curve, the X-axis concentrations, and the Y-axis absorbance were drawn.
# [42] = Homo sapiens, read-out: cell growth inhibition
structure (smiles),measurement,setting,value
"COc1cc(C=CC(=O)c2ccc(N3CCNCC3)cc2)ccc1F [Ve, 3-(4-Fluoro-3-methoxyphenyl)-1-(4-(piperazin-1-yl)phenyl) prop-2-en-1-one]",cell growth promotion,[1],49.97%
same,cell growth promotion,[2],97.12%
same,cell growth promotion,[3],49.59%
same,cell growth promotion,[4]; 10 µM single dose,27.43%
same,inhibition at 10 µM,[4]; [42],72.6%
same,cell growth promotion,[5],34.68%
same,inhibition at 10 µM,[5]; [42],65.3%
same,cell growth promotion,[6],106.02%
same,cell growth promotion,[7],94.50%
same,cell growth promotion,[8],80.75%
same,cell growth promotion,[9],76.08%
same,cell growth promotion,[10],28.91%
same,inhibition at 10 µM,[10]; [42],71.1%
same,cell growth promotion,[11],67.21%
same,cell growth promotion,[12],51.40%
same,cell growth promotion,[13],121.73%
same,cell growth promotion,[14],83.00%
same,cell growth promotion,[15],55.00%
same,inhibition at 10 µM,[15]; [42],45%
same,cell growth promotion,[16],80.13%
same,cell growth promotion,[17],79.37%
same,cell growth promotion,[18],94.03%
same,cell growth promotion,[19],91.26%
same,cell growth promotion,[20],43.16%
same,cell growth promotion,[21],78.43%
same,cell growth promotion,[22],68.87%
same,cell growth promotion,[23],112.40%
same,cell growth promotion,[24],59.87%
same,cell growth promotion,[25],58.35%
same,cell growth promotion,[26],57.67%
same,cell growth promotion,[27],59.94%
same,cell growth promotion,[28],22.15%
same,inhibition at 10 µM,[28]; [42],77.8%
same,cell growth promotion,[29],86.54%
same,cell growth promotion,[30],89.05%
same,cell growth promotion,[31],87.98%
same,cell growth promotion,[32],57.23%
same,cell growth promotion,[33],68.11%
same,cell growth promotion,[34],101.92%
same,cell growth promotion,[35],105.61%
same,cell growth promotion,[36],73.01%
same,cell growth promotion,[37],97.07%
same,cell growth promotion,[38],100.21%
same,cell growth promotion,[39],70.18%
same,cell growth promotion,[40],74.40%
same,IC50,[41],0.57 µM
